From patent US12116357B2, “Heteroaryl-triazole and heteroaryl-tetrazole compounds as pesticides” (Bayer Aktiengesellschaft, priority 2018, dated 2024)

How the values were obtained:
Assay type in all cases: in vivo
Meloidogyne incognita = Meloidogyne incognita test; settings: 20 ppm, after 14 days
Description: • Solvent: 125.0 parts by weight of acetone
To produce a suitable preparation of active compound, 1 part by weight of active compound is mixed with the stated amount of solvent, and the concentrate is diluted with water to the desired concentration.
Vessels are filled with sand, a solution of the active ingredient, a suspension containing eggs and larvae of the southern root-knot nematode (Meloidogyne incognita) and salad seeds. The salad seeds germinate and the seedlings grow. Galls develop in the roots.
After 14 days the nematicidal activity is determined on the basis of the percentage of gall formation. 100% means no galls were found and 0% means the number of galls found on the roots of the treated plants was equal to that in untreated control plants.

Phaedon cochleariae = Phaedon cochleariae spray test; settings: 168 h, after 7 days
Outline: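 Chinese cabbage leaf disks sprayed with compound in acetone/DMF diluted in water with 1000 ppm alkylarylpolyglycol ether emulsifier, then infested with mustard beetle larvae once dry. Mortality (%) scored after 7 days; 100% = all larvae killed, 0% = none.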

Spodoptera frugiperda = Spodoptera frugiperda spray test; settings: 168 h
Outline: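 Maize leaf sections were sprayed with compound formulated in acetone/DMF and diluted in water containing 1000 ppm emulsifier, then infested with fall armyworm larvae once dry. Percent mortality was scored after 7 days.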

Ctenocephalides felis [1] = assay: Ctenocephalides felis in-vitro contact test, adult cat flea; settings: 5 μg/cm^2, after 48 hours, read-out: efficacy (fleas dead or moribund)
Outline: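 Compound in acetone coated on glass tube walls (900 ppm solution, 5 μg/cm^2), solvent evaporated, then 5-10 adult fleas added and kept at room temperature. At 48 h, fleas put on a 45-50 °C plate for up to 5 min; those unable to climb scored dead or moribund, efficacy as % affected.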

Boophilus microplus = Boophilus microplus injection test; settings: Rhipicephalus microplus, 168 h, 20 μg/animal, egg deposition after 7 days, read-out: efficacy (infertile eggs)
Outline: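 Engorged adult female ticks, five per test, received a 1 μl abdominal injection of compound in DMSO, then were kept in a climate chamber. Fertile egg deposition checked after 7 days, with unclear eggs held until hatching at about 42 days. Efficacy 100% means all eggs infertile, 0% all fertile.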

Ctenocephalides felis [2] = assay: Ctenocephalides felis oral test; settings: 48 h, 100 ppm in cattle blood, after 2 days
Outline: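 Adult unfed cat fleas (~20) fed through parafilm on cattle blood containing compound (DMSO concentrate diluted in blood); blood held at 37° C., fleas at room temperature. Mortality (%) scored after 2 days.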

Myzus persicae [3] = assay: Myzus persicae oral test; settings: 120 h
Outline: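 Mixed-population aphids feed through parafilm on compound solution (acetone concentrate diluted with water) combined with IPL41 insect medium (33%+15% sugar). Mortality (%) read after 5 days, 100% meaning all aphids killed.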

Nezara viridula = Nezara viridula spray test; settings: 96 h
Outline: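 Barley plants infested with N. viridula larvae sprayed with compound in acetone/DMF diluted in water with 1000 ppm emulsifier at the desired concentration. Mortality (%) scored after 4 days; 100% means all bugs killed.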

Nilaparvata lugens = Nilaparvata lugens spray test; settings: 96 h
Outline: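 Rice plants were sprayed with compound formulated in acetone/dimethylformamide and diluted in water containing alkylarylpolyglycol ether emulsifier, then infested with brown planthoppers. Percent mortality was scored after 4 days, where 100% means all insects killed.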

[4] = system: Tetranychus urticae (OP-Resistant); assay: Tetranychus urticae (OP-resistant) spray test; settings: 144 h, after 6 days
Description: (§1) • Solvent: 78.0 parts by weight acetone • 1.5 parts by weight dimethylformamide • Emulsifier: alkylarylpolyglycol ether
(§2) To produce a suitable preparation of active compound, 1 part by weight of active compound is mixed with the stated amount of solvents and is diluted with water, containing an emulsifier concentration of 1000 ppm, to the desired concentration. Further test concentrations are prepared by dilution with emulsifier containing water.
French bean (Phaseolus vulgaris) leaf disks infected with all instars of the two spotted spidermite (Tetranychus urticae), are sprayed with a preparation of the active ingredient of the desired concentration.
After 6 days mortality in % is determined. 100% means all spider mites have been killed and 0% means none of the spider mites have been killed.

[5] = system: Aedes aegypti strain MONHEIM; assay: Aedes aegypti test (surface treatment & contact assay); settings: 24 hours after contact, read-out: efficacy (mortality); for mortality at 20 mg/m2: surface concentration 20 mg/m^2, 30 min exposure; for mortality at 4 mg/m2: surface concentration 4 mg/m^2, 30 min exposure
Outline: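 Compound dissolved in acetone (2 mg/ml) with 2000 ppm rapeseed oil methyl ester, applied to glazed tile and acetone evaporated; adult mosquitoes exposed on the dried surface for 30 min. Percent mortality scored 24 h after contact.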

[6] = system: Musca domestica strain WHO-N; assay: Musca domestica test (surface treatment & contact assay); settings: 24 hours after contact, read-out: efficacy (mortality); for mortality at 4 mg/m2: surface concentration 4 mg/m^2, 30 min exposure; for mortality at 20 mg/m2: surface concentration 20 mg/m^2, 30 min exposure
Outline: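 Test compound dissolved in acetone (2 mg/ml) with 2000 ppm RME, applied to glazed tile and acetone evaporated. Adult flies placed on dried surface for 30 min exposure. Mortality (%) scored 24 h after contact; 100% means all insects dead.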

[7] = system: Blattella germanica strain PAULINIA; assay: Blattella germanica test (surface treatment & contact assay); settings: 24 hours after contact, read-out: efficacy (mortality); for mortality at 20 mg/m2: surface concentration 20 mg/m^2, 30 min exposure; for mortality at 4 mg/m2: surface concentration 4 mg/m^2, 30 min exposure
Description: (§3) • Solvent: Aceton+2000 ppm rapeseed oil methyl ester (RME)
In order to produce a sufficient, active ingredient containing solution it is necessary to solve the test compound in the solvent-mix (acetone at 2 mg/ml/RME 2000 ppm). This solution is pipetted onto a glazed tile and after evaporation of the acetone, adult animals of the species Blattella germanica strain […] are placed onto the dried surface. The exposure time is 30 minutes.
(§4) Mortality in percent (%) is determined 24 hours after contact of the insects to the treated surface. 100% mortality means that all tested insects are dead, whereas 0% means that no insect died.

[8] = system: Culex quinquefasciatus strain P00; assay: Culex quinquefasciatus test (surface treatment & contact assay); settings: 24 hours after contact, read-out: efficacy (mortality); for mortality at 4 mg/m2: surface concentration 4 mg/m^2, 30 min exposure; for mortality at 20 mg/m2: surface concentration 20 mg/m^2, 30 min exposure
Description: as §3
(§5) In order to produce a sufficient, active ingredient containing solution it is necessary to solve the test compound in the solvent-mix (acetone at 2 mg/ml/RME 2000 ppm). This solution is pipetted onto a glazed tile and after evaporation of the acetone, adult mosquitoes of the species Culex quinquefasciatus strain P00 are placed onto the dried surface. The exposure time is 30 minutes.
as §4

Myzus persicae [9] = assay: Myzus persicae spray test; settings: 120 h
Description: as §1, §2
Chinese cabbage (Brassica pekinensis) leaf disks infected with all instars of the green peach aphid (Myzus persicae), are sprayed with a preparation of the active ingredient of the desired concentration.
After 5 days mortality in % is determined. 100% means all aphids have been killed and 0% means none of the aphids have been killed.

[10] = system: Anopheles funestus strain FUMOZ-R; assay: Anopheles funestus test (surface treatment & contact assay); settings: surface concentration 20 mg/m^2, 30 min exposure, 24 hours after contact, read-out: efficacy (mortality)
Description: as §3
as §5, with “Anopheles funestus” for “Culex quinquefasciatus”, “FUMOZ-R (Hunt et al., Med. Vet. Entomol. 2005 September; 19(3): 271-275)” for “P00”
as §4

[11] = system: cattle ticks (Boophilus microplus) strane Parhurst, SP-resistant; assay: Boophilus microplus dip test; settings: 100 ppm, egg deposition after 7 days
Description: • Test animal: cattle ticks (Boophilus microplus) strane Parhurst, SP-resistant • Solvent: dimethyl sulfoxide
To produce a suitable preparation of active compound, 10 mg of active compound are dissolved in 0.5 ml solvent, and the concentrate is diluted with water to the desired concentration.
This compound solution is pipetted into tubes. 8-10 engorged, adult, female cattle ticks (Boophilus microplus) are placed in perforated tubes. These tubes are immersed in the aqueous compound solution until the ticks are completely moistened. After the liquid has drained off, the ticks are transferred to a filter paper in a plastic tray and stored in a climate chamber.
After 7 days egg deposition of fertile eggs is monitored. Eggs where fertility is not visible are stored in a climate chamber till hatching after about 42 days. An efficacy of 100% means all eggs are infertile; 0% means all eggs are fertile.

Row | Compound | mortality at 500 g/ha (Phaedon cochleariae) | mortality at 500 g/ha (Spodoptera frugiperda) | pest or weed control at 5 µg/cm2 (Ctenocephalides felis [1]) | pest or weed control at 0.02 mg (Boophilus microplus) | mortality at 100 ppm (Ctenocephalides felis [2]) | mortality at 4 ppm (Myzus persicae [3]) | mortality at 20 ppm (Myzus persicae [3]) | mortality at 500 g/ha (Nezara viridula) | mortality at 500 g/ha (Nilaparvata lugens) | mortality at 20 mg/m2 [5] | mortality at 4 mg/m2 [6] | mortality at 20 mg/m2 [6] | mortality at 20 mg/m2 [7] | other results
1 | CC(c1ncnn1-c1ncccn1)N(C(=O)c1cc(Cl)cc(C(F)(F)F)c1)C1CC1 (centres unmarked) [Example I-002] | 83% | 100% |  |  |  |  |  |  |  |  |  |  |  | nematicidal activity (gall formation) (Meloidogyne incognita): 100%
2 | CC(c1ncnn1-c1ncccn1)N(Cc1ccccn1)C(=O)c1cc(Cl)cc(C(F)(F)F)c1 (centres unmarked) [Example I-001, 3-Chloro-N-(pyridin-2-ylmethyl)-N-{1-[1-(pyrimidin-2-yl)-1H-1,2,4-triazol-5-yl]ethyl}-5-(trifluoromethyl)benzamide] | 100% | 100% | 100% | 100% | 100% | 100% | 100% | 100% | 90% | 90 to 100% | 90 to 100% | 90 to 100% |  | nematicidal activity (gall formation) (Meloidogyne incognita): 90%; mortality at 500 g/ha [4]: 95%
3 | CC(c1ncnn1-c1ncccn1)N(C(=O)c1cc(Cl)cc(C(F)(F)F)c1)C1COC1 (centres unmarked) [Example I-021] | 100% | 83% | 100% | 100% | 100% | 100% | 100% | 100% |  | 90 to 100% |  | 90 to 100% | 80 to 100% | mortality at 4 mg/m2 [5]: 80 to 100%
4 | CC(c1ncnn1-c1ncccn1)N(CCS(C)(=O)=O)C(=O)c1cc(Cl)cc(C(F)(F)F)c1 (centres unmarked) [Example I-022] | 100% | 100% | 100% | 100% | 100% | 100% | 100% |  |  | 90 to 100% | 90 to 100% | 90 to 100% | 80 to 100% | mortality at 4 mg/m2 [5]: 80 to 100%; mortality at 4 mg/m2 [8]: 85 to 100%; mortality at 20 mg/m2 [8]: 90 to 100%; mortality at 4 mg/m2 [7]: 80 to 100%
5 | CSCCN(C(=O)c1cc(Cl)cc(S(C)(=O)=O)c1)C(C)c1ncnn1-c1ccc(C#N)cn1 (centres unmarked) [Example I-035] |  | 100% | 100% |  |  | 100% |  | 100% | 90% | 90 to 100% | 90 to 100% | 90 to 100% |  | mortality at 500 g/ha (Myzus persicae [9]): 90%; mortality at 500 g/ha [4]: 90%; mortality at 4 mg/m2 [8]: 85 to 100%; mortality at 20 mg/m2 [8]: 90 to 100%; mortality at 20 mg/m2 [10]: 85 to 100%
6 | CC(c1ncnn1-c1ncccn1)N(CCc1ccc(F)cc1)C(=O)c1cc(Cl)cc(C(F)(F)F)c1 (centres unmarked) [Example I-003] | 100% | 100% |  | 100% | 100% | 100% | 100% | 100% | 100% | 90 to 100% | 90 to 100% | 90 to 100% |  | efficacy (infertile eggs) [11]: 100%
7 | CC(c1ncnn1-c1ncccn1)N(CC1CS(=O)(=O)C1)C(=O)c1cc(Cl)cc(C(F)(F)F)c1 (centres unmarked) [Example I-004] | 100% | 100% |  | 100% | 100% | 100% | 100% | 100% | 100% | 90 to 100% | 90 to 100% | 90 to 100% | 80 to 100% | mortality at 500 g/ha (Myzus persicae [9]): 100%; mortality at 4 mg/m2 [7]: 80 to 100%
